Values joined by “and” are separate entries in the source; they are usually repeats but may differ in a detail not shown here. Equal entries are not always repeated. No end group written: not given here.

Experimental findings from patent US7273848B2, “Apolipoprotein A-I agonists and their use to treat dyslipidemic disorders” (priority 1997, dated 2007) are described below.

Assay [1] can be described thus: Lipid binding by fluorescence spectroscopy. The procedure:
The lipid binding properties of the peptides synthesized in Section 6, supra, were tested by fluorescence measurements with labeled peptides, in the present case Tryptophane (Trp or W) or Naphtylalanine (Nal). The fluorescence spectra were recorded on a Fluoromax from Spex (Jobin-Yvon) equipped with a Xenon lamp of 150 W, two monochromators (excitation and emission), a photomultiplier R-928 for detection sensitive in the red up to 850 nm and a thermoelectric magnetic stirred cell holder. Quartz Suprasil cuvettes were used for measurements in the micromolar concentration range. A device of variable slits (from 0.4 to 5 nm) allows modulation of the incident and emitted intensities according to the concentration of peptide used. The reported values are in general the average of between 2 to 4 spectra. The peptide concentration is determined by absorption spectrometry on a Philips PU 8800 using the absorption band of the Trp (ε280 nm=5,550 M^−1 cm^−1 in Tris buffer) or the Nal (ε224 nm =92,770 M^−1 cm^−1 in methanol)
Fluorescence spectra of the peptides were recorded between 290 nm and 450 nm in Tris-HCl buffer (20 mM, pH=7.5), in the presence and absence of lipidic vesicles. The small unilamellar vesicles were formed after rehydration in buffer of the lyophilized phospholipids, dispersion and tip sonification under a N2 stream. The lipids used were either Egg PC/Chol. (20:1) or POPC/Chol. (20:1). The spectra were recorded at a peptide concentration of 2 μM and at a temperature of 37° C. The fluorescence reference standard in the case of Trp was N-acetyltryptophanylamide (NATA).
Lipid binding studies were done through progressive lipidic vesicle addition to the peptide in solution at 2 μM (slits: 5 nm in excitation and 1.5 nm in emission). Dilution effects were taken into account for the fluorescence intensity determination. The lipid concentrations were varied from 10 to 600 μM and the molar ratio of lipid to peptide (Ri) was varied from 5 to 300. The wavelength of excitation was set at 280 nm for both Trp and Nal.
The data were directly recorded and treated by an IBM-PC linked to the spectrofluorimeter through the DM3000F software from Spex. The spectra were corrected by substraction of the solvent contribution and by application of a coefficient given by the constructor taking into account the variation of the photomultiplier response versus the wavelength.
The fluorescence spectra of the peptides were characterized by the wavelength at their maximum of fluorescence emission and by their quantum yield compared to NATA in the case of peptides labeled with a tryptophane. The process of binding to lipids was analyzed by calculating the shift of the wavelength at the maximum of fluorescence emission, (λmax), and the variation of the relative fluorescence intensity of emission versus the lipid concentration. The relative fluorescence intensity is defined as the following ratio: (I-I0)λmax/I0λmax. I and I0 are both measured at the (λmax) corresponding to the initial free state of the peptide, i.e., without lipids. I is the intensity at a defined lipid to peptide ratio and I0 is the same parameter measured in absence of lipids. The absence of these variations is relevant of the absence of interactions of the peptides with the lipids.

The test system of the next assay is HDL cholesterol. Kind of assay: HDL cholesterol in rabbits after injection of phospholipid/peptide complex. The format is in vivo, rabbit. The settings on record: for Increase in HDL Cholesterol (%): 8 mg/kg i.v. as peptide/DPPC complexes. The method, then:
Small discoidal particles consisting of phospholipid (DPPC) and peptide 146 (SEQ ID NO:146) were prepared following the cholate dialysis method. The phospholipid was dissolved in chloroform and dried under a stream of nitrogen. The peptide was dissolved in buffer (saline) at a concentration of 1-2 mg/ml. The lipid film was redissolved in buffer containing cholate (43° C.) and the peptide solution was added at a 3-1 phospholipid/peptide ratio. The mixture was incubated overnight at 43° C. and then dialyzed at 43° C. (24 hr.), room temperature (24 hr.) and 4° C. (24 hr.), with three changes of buffer (large volumes) at temperature point. The complexes were filter sterilized (0.22μ) for injection and storage at 4° C.
Male New Zealand White rabbits (2.5-3 kg) were injected intravenously with a dose of phospholipid/peptide complex (8 mg/kg bodyweight peptide 146 (SEQ ID NO:146) or 10 mg/kg bodyweight ApoA-I, expressed as peptide or protein content) in a single bolus injection not exceeding 10-15 ml. The animals were slightly sedated before the manipulations. Blood samples (collected on EDTA) were taken before and 5, 15, 30, 60, 240 and 1440 minutes after injection. The hematocrit (Hct) was determined for each sample. Samples were aliquoted and stored at −20° C. before analysis.
Plasma Lipids. The total plasma cholesterol, plasma triglycerides and plasma phospholipids were determined enzymatically using commercially available assays according to the manufacturer's protocols (Boehringer Mannheim, Mannheim, Germany and Biomerieux, 69280, Marcy-l'étoile, France).
Lipoprotein Profiles. The plasma lipoprotein profiles of the fractions obtained after the separation of the plasma into its lipoprotein fractions were determined by spinning in a sucrose density gradient. The fractions were collected and in each individual fraction the phospholipid and cholesterol content was measured enzymatically.

Consider PVLELFENLWERLLDALQKKLK [peptide 149], for which, in assay [1] (EPC/Chol (20:1) SUVs), the “lipid to peptide molar ratio at which burying of the tryptophane residue is maximal” value was “about 30”. Moreover, the “λmax (nm)” value in assay [1] (Ri 0 (buffer, no lipids), 2 μM) is reported as 347 nm; in assay [1] (Ri 5), 334.5 nm; in assay [1] (Ri 10) it was 329 nm; in assay [1] (Ri 30), 325.5 nm; in assay [1] (Ri 60), 325 nm; in assay [1] (Ri 100), 325.5 nm. The “λmax (nm)” value in assay [1] (Ri 200) turned out to be 325 nm. The I/Io is on record as 0 in assay [1] (Ri 0, 2 μM peptide, 37° C.); 19.7 in assay [1] (Ri 5); 31.4 in assay [1] (Ri 10); 49.4 in assay [1] (Ri 30); 64.3 in assay [1] (Ri 60); 77 in assay [1] (Ri 100). Moreover, in assay [1] (Ri 200), the I/Io was 84. Also, the “wavelength for the tryptophane maximum fluorescence emission after binding” value in assay [1] (bound to EPC/Chol (20:1) SUVs) is given as 325 nm. In assay [1] (small unilamellar vesicles), the “lipid binding (in words)” value was “binds very effectively”.
On to PVLELFENLLERLLDALQKKLK [peptide 146], for which the “duration of the increase in cholesterol of the HDL cholesterol fractions” value in the assay with HDL cholesterol (8 mg/kg as peptide/DPPC complexes, apparent at 5 min.) is on record as “approximately 24 hr”. In addition, the “Increase in HDL Cholesterol (%)” value in the assay on HDL cholesterol (5 min.) is 31.3%; with HDL cholesterol (15 min.) it was 60.4%; with HDL cholesterol (60 min.), 42.9%; with HDL cholesterol (240 min., 8 mg/kg) it was 90% and 90.2%; with HDL cholesterol (1440 min.) it was 71.2%. For the same sequence, in the assay on HDL cholesterol (peptide/DPPC complexes 8 mg/kg), the “mobilization of peripheral cholesterol (in words)” value is “induces rapid and efficient mobilization of peripheral cholesterol”.
